Experiments:
human TLR8 = target: T1, human TLR8 (Homo sapiens, UniProt Q9NR97); test: TLR activation, HEK-BLUE-hTLR8 SEAP reporter cells; format: cell-based; conditions: 16-20 hours, lowest concentration giving SEAP response at least 2x vehicle control, tested 0.01-30 micromolar
T1 construct: host or cells: HEK293 (HEK-BLUE-hTLR8)
T1 sequence (Q9NR97 27-1041): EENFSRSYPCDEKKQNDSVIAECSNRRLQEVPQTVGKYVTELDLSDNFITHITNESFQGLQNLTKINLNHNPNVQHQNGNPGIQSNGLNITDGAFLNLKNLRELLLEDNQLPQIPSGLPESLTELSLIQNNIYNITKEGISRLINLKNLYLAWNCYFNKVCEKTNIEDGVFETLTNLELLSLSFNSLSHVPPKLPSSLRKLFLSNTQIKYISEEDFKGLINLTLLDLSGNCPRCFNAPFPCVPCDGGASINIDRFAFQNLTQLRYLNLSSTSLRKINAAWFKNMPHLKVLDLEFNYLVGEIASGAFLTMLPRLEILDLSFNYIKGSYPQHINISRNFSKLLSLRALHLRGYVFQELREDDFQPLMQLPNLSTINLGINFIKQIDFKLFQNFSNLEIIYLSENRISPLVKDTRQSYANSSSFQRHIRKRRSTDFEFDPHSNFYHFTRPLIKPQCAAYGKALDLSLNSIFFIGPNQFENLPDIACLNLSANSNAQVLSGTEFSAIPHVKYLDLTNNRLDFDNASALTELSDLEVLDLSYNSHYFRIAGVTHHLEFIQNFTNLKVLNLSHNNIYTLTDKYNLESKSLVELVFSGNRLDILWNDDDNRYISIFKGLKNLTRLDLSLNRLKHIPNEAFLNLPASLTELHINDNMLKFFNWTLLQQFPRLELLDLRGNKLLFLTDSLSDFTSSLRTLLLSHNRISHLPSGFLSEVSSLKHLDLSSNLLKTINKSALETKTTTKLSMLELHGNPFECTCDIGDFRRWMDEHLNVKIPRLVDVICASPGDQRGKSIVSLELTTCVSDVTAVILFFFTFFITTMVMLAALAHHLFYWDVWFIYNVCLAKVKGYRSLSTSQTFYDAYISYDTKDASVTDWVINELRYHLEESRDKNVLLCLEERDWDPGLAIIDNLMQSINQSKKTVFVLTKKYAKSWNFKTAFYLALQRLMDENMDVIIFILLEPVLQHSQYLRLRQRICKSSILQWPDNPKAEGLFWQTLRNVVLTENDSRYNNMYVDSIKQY
Experimental: (§1) HEK-BLUE-hTLR7 or hTLR8 reporter cells were obtained from InvivoGen, San Diego, Calif. According to the manufacturer's description, these reporter cells were prepared by co-transfection of HEK293 cells with an inducible secreted embryonic alkaline phosphatase (SEAP) reporter gene and either the human TLR7 or TLR8 gene. The SEAP reporter gene was placed under the control of an IFN-β minimal promoter fused to five NF-κB and AP-1-binding sites. In the presence of a TLR ligand, activation of NF-κB and AP-1 occurs, resulting in a corresponding increase in SEAP levels.
(§2) In the assay, the HEK cells were grown and maintained using standard cell culture techniques in a growth medium that contained Dulbecco's Modified Eagle Medium (ThermoFisher Scientific Incorporated, Waltham, Mass.) supplemented with 1% penicillin/streptomycin and 10% heat-inactivated Gibco fetal bovine serum (ThermoFisher Scientific). Each compound was solubilized in DMSO to create a 3 mM stock solution. The stock solution was then further diluted with the growth medium to prepare serial dilutions. Each test compound was tested at a concentration of 30, 10, 3.3, 1.1, 0.37, 0.12, 0.04, and 0.01 micromolar using a 96-well format with 5×10^4 cells and 200 microliters of growth medium per well.
(§3) For each compound, hTLR7, hTLR8, and their respective null control HEK cells were screened. DMSO serially diluted into the growth medium served as the vehicle control. Cell culture supernatants containing the SEAP reporter were collected after an incubation period of 16-20 hours in a cell culture incubator (37° C. and 5% CO2), and either analyzed immediately or stored at −80° C. SEAP levels were measured using the colorimetric enzyme assay (QUANTI-BLUE (InvivoGen) according to manufacturer's instructions.
(§4) Specifically, the minimum effective concentration of each compound (micromolar) was determined as the lowest concentration of the compound that produced a SEAP expression response at least 2× greater than that observed with the vehicle control wells.

human TLR7 = target: T2, human TLR7 (Homo sapiens, UniProt Q9NYK1); test: TLR activation, HEK-BLUE-hTLR7 SEAP reporter cells; format: cell-based; conditions: 16-20 hours, lowest concentration giving SEAP response at least 2x vehicle control, tested 0.01-30 micromolar
T2 construct: host or cells: HEK293 (HEK-BLUE-hTLR7)
T2 sequence (Q9NYK1 27-1049): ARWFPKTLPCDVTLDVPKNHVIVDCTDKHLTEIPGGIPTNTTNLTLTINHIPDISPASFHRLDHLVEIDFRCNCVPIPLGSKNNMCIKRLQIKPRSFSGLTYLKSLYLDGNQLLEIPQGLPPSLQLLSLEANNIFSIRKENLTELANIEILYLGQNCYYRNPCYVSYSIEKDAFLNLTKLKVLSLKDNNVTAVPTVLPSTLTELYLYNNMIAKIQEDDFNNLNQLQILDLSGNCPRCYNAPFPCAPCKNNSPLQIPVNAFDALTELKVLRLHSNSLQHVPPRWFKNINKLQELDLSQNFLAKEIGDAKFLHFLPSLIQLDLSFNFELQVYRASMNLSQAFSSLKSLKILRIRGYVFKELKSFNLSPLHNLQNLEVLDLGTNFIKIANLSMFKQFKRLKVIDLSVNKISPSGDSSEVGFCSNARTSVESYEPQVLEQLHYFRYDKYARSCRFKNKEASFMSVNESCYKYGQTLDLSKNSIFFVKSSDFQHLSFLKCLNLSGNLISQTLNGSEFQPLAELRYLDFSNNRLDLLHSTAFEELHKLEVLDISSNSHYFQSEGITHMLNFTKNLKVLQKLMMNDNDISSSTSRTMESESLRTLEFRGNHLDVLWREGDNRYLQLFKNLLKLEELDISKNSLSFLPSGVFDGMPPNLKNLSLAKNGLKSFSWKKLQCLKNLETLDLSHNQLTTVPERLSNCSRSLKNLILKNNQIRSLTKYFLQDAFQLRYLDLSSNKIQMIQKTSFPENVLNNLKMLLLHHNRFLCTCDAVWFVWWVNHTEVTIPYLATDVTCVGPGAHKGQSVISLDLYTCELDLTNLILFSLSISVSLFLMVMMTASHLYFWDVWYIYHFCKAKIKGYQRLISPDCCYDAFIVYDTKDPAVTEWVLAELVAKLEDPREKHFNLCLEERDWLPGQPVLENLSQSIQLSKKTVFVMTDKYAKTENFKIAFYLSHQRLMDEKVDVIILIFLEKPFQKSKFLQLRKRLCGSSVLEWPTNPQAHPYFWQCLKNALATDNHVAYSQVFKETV
Experimental: as §1, §2, §3, §4

Row | MEC to Produce TLR Activation: TLR 8 (human TLR8) [µM] | MEC to Produce TLR Activation: TLR 7 (human TLR7) [µM] | SMILES
1 | >30 | 3.3 | CCC(O)(CC)[C@@H](C)n1cnc2c(N)nc3ccccc3c21 [Example 19, (2R)-2-(4-aminoimidazo[4,5-c]quinolin-1-yl)-3-ethyl-pentan-3-ol]
2 | >30 | 3.3 | C[C@@H](n1cnc2c(N)nc3ccccc3c21)C(C)(C)F [Example 20, 1-[(1R)-2-fluoro-1,2-dimethyl-propyl]imidazo[4,5-c]quinolin-4-amine]
3 | >30 | >30 | C[C@H](n1cnc2c(N)nc3ccccc3c21)C(C)(C)F [Example 21, 1-[(1S)-2-fluoro-1,2-dimethyl-propyl]imidazo[4,5-c]quinolin-4-amine]
